Reference: patent US8457712B2, “Multi-mode medical device system and methods of manufacturing and using same” (Wisconsin Alumni Research Foundation, priority 2005, dated 2013)

Assay: Diffusion of a fluorescent probe in swollen gelatin gel by FRAP
Type: physicochemical
From the text: To assess the stability of DTPA[Gd(III)] in the gelatin coating, the diffusion of a fluorescence probe in gelatin was studied by the technique of fluorescence recovery after photobleaching (FRAP). The instrument and data analysis scheme are described in Kim, S. H. and Yu, H., J. Phys. Chem. 1992, 96, 4034, which is hereby fully incorporated by reference. Fluorescein was used as the fluorescence probe due, in part, to its molecular size being roughly the same as that of DTPA[Gd(III)]. The focus of the study was to examine the possible retardation effects of gelatin concentration and cross-link density on the diffusion, which was determined at room temperature, i.e., below the gel point of gelatin. The diffusion of fluorescein probe slows down with the increase of gelatin concentration. The diffusion coefficient decreases from 1.5×10-10 to 9×10-12 […]-1 when the concentration of gelatin increases from 9% to 40%. […] Accordingly, the probe diffusion is more likely controlled by the concentration of gelatin rather than the cross-link density. On the other hand, the cross-link density may determine the swelling ratio of gelatin, i.e., the concentration of gelatin in aqueous solution. […]

| SMILES | time to diffuse out of the gelatin coating (estimated for coating thickness 60 μm and diffusion coefficient 9×10-12 m2s-1) | fluorescence signal remaining in gelatin films (after soaking in water for 18 hours, including films not cross-linked) |
| --- | --- | --- |
| O=C(O)CN(CCN(CC(=O)O)CC(=O)O)CCN(CC(=O)O)CC(=O)O [DTPA, diethylenetriaminepentaacetic acid] | about 67 seconds |  |
| O=C1OC2(c3ccc(O)cc3Oc3cc(O)ccc32)c2ccccc21 [fluorescein] |  | still fluorescence signal |
